± gives the expanded uncertainty stated by the source.
Assay: heat capacity at constant pressure per volume; xn = mol fraction of the nth substance listed
Conditions: 102.6 kPa, Liquid, DSC, Micro DSC III, x2 = 0.048

Brc1ccccc1 [bromobenzene] + CCCCCC[n+]1ccn(C)c1.O=S(=O)([N-]S(=O)(=O)C(F)(F)F)C(F)(F)F
heat capacity (287.65 K): 1529000 ± 59000 J/K/m3
heat capacity (287.9 K): 1529000 ± 59000 J/K/m3
heat capacity (288.19 K): 1529000 ± 59000 J/K/m3
heat capacity (288.46 K): 1529000 ± 59000 J/K/m3
heat capacity (288.75 K): 1530000 ± 60000 J/K/m3
heat capacity (289.02 K): 1531000 ± 59000 J/K/m3
heat capacity (289.31 K): 1531000 ± 59000 J/K/m3
heat capacity (289.59 K): 1531000 ± 59000 J/K/m3
heat capacity (289.87 K): 1532000 ± 59000 J/K/m3
heat capacity (290.14 K): 1533000 ± 59000 J/K/m3
heat capacity (290.43 K): 1533000 ± 59000 J/K/m3
heat capacity (290.74 K): 1533000 ± 59000 J/K/m3
heat capacity (290.98 K): 1533000 ± 59000 J/K/m3
heat capacity (291.26 K): 1534000 ± 59000 J/K/m3
heat capacity (291.54 K): 1535000 ± 59000 J/K/m3
heat capacity (291.82 K): 1537000 ± 60000 J/K/m3
heat capacity (292.1 K): 1539000 ± 60000 J/K/m3
heat capacity (292.38 K): 1541000 ± 60000 J/K/m3
heat capacity (292.7 K): 1546000 ± 60000 J/K/m3
heat capacity (292.8 K): 1536000 ± 60000 J/K/m3
heat capacity (292.98 K): 1534000 ± 59000 J/K/m3
heat capacity (293.27 K): 1533000 ± 59000 J/K/m3
heat capacity (293.53 K): 1533000 ± 59000 J/K/m3
heat capacity (293.82 K): 1533000 ± 59000 J/K/m3
heat capacity (294.09 K): 1533000 ± 59000 J/K/m3
heat capacity (294.37 K): 1533000 ± 59000 J/K/m3
heat capacity (294.66 K): 1533000 ± 59000 J/K/m3
heat capacity (294.94 K): 1533000 ± 59000 J/K/m3
heat capacity (295.22 K): 1534000 ± 59000 J/K/m3
heat capacity (295.5 K): 1534000 ± 59000 J/K/m3
heat capacity (295.78 K): 1534000 ± 59000 J/K/m3
heat capacity (296.06 K): 1534000 ± 59000 J/K/m3
heat capacity (296.34 K): 1534000 ± 59000 J/K/m3
heat capacity (296.62 K): 1534000 ± 59000 J/K/m3
heat capacity (296.9 K): 1534000 ± 59000 J/K/m3
heat capacity (297.18 K): 1534000 ± 59000 J/K/m3
heat capacity (297.46 K): 1535000 ± 59000 J/K/m3
heat capacity (297.74 K): 1535000 ± 59000 J/K/m3
heat capacity (298.02 K): 1536000 ± 59000 J/K/m3
heat capacity (298.3 K): 1536000 ± 59000 J/K/m3
heat capacity (298.58 K): 1536000 ± 59000 J/K/m3
heat capacity (298.86 K): 1536000 ± 59000 J/K/m3
heat capacity (299.14 K): 1536000 ± 59000 J/K/m3
heat capacity (299.42 K): 1537000 ± 60000 J/K/m3
heat capacity (299.7 K): 1537000 ± 60000 J/K/m3
heat capacity (299.98 K): 1537000 ± 60000 J/K/m3
heat capacity (300.26 K): 1537000 ± 60000 J/K/m3
heat capacity (300.54 K): 1538000 ± 60000 J/K/m3
heat capacity (300.82 K): 1538000 ± 60000 J/K/m3
heat capacity (301.1 K): 1538000 ± 60000 J/K/m3
heat capacity (301.33 K): 1538000 ± 60000 J/K/m3
heat capacity (301.6 K): 1538000 ± 60000 J/K/m3
heat capacity (302.37 K): 1539000 ± 60000 J/K/m3
heat capacity (302.98 K): 1539000 ± 60000 J/K/m3
heat capacity (303.6 K): 1539000 ± 60000 J/K/m3
heat capacity (304.21 K): 1540000 ± 60000 J/K/m3
heat capacity (304.82 K): 1540000 ± 60000 J/K/m3
heat capacity (305.43 K): 1541000 ± 60000 J/K/m3
heat capacity (306.05 K): 1541000 ± 60000 J/K/m3
heat capacity (306.66 K): 1541000 ± 60000 J/K/m3
heat capacity (307.27 K): 1542000 ± 60000 J/K/m3
heat capacity (307.88 K): 1542000 ± 60000 J/K/m3
heat capacity (308.5 K): 1542000 ± 60000 J/K/m3
heat capacity (309.11 K): 1543000 ± 60000 J/K/m3
heat capacity (309.72 K): 1543000 ± 60000 J/K/m3
heat capacity (310.34 K): 1544000 ± 60000 J/K/m3
heat capacity (310.95 K): 1544000 ± 60000 J/K/m3
heat capacity (311.56 K): 1545000 ± 60000 J/K/m3
heat capacity (312.18 K): 1545000 ± 60000 J/K/m3
heat capacity (312.79 K): 1545000 ± 60000 J/K/m3
heat capacity (313.4 K): 1546000 ± 60000 J/K/m3
heat capacity (314.01 K): 1546000 ± 60000 J/K/m3
heat capacity (314.63 K): 1547000 ± 60000 J/K/m3
heat capacity (315.24 K): 1547000 ± 60000 J/K/m3
heat capacity (315.85 K): 1548000 ± 60000 J/K/m3
heat capacity (316.46 K): 1548000 ± 60000 J/K/m3
heat capacity (317.08 K): 1548000 ± 60000 J/K/m3
heat capacity (317.69 K): 1549000 ± 60000 J/K/m3
heat capacity (318.3 K): 1549000 ± 60000 J/K/m3
heat capacity (318.92 K): 1550000 ± 60000 J/K/m3
heat capacity (319.53 K): 1550000 ± 60000 J/K/m3
heat capacity (320.14 K): 1551000 ± 60000 J/K/m3
heat capacity (320.45 K): 1551000 ± 60000 J/K/m3
heat capacity (320.75 K): 1551000 ± 60000 J/K/m3
heat capacity (321.98 K): 1552000 ± 60000 J/K/m3
heat capacity (322.59 K): 1552000 ± 60000 J/K/m3
heat capacity (323.21 K): 1553000 ± 60000 J/K/m3
heat capacity (323.82 K): 1553000 ± 60000 J/K/m3
heat capacity (324.45 K): 1553000 ± 60000 J/K/m3
heat capacity (325.05 K): 1554000 ± 60000 J/K/m3
heat capacity (325.66 K): 1554000 ± 60000 J/K/m3
heat capacity (326.27 K): 1555000 ± 60000 J/K/m3
heat capacity (326.88 K): 1555000 ± 60000 J/K/m3
heat capacity (327.5 K): 1556000 ± 60000 J/K/m3
heat capacity (328.11 K): 1556000 ± 60000 J/K/m3
heat capacity (328.72 K): 1557000 ± 60000 J/K/m3
heat capacity (329.33 K): 1557000 ± 60000 J/K/m3
heat capacity (329.95 K): 1558000 ± 60000 J/K/m3
heat capacity (330.56 K): 1558000 ± 60000 J/K/m3
heat capacity (331.02 K): 1559000 ± 60000 J/K/m3

From the NIST ThermoML archive (doi:10.1016/j.fluid.2016.02.011)
